From patent US20230407298A1, “METHODS FOR INHIBITING CHMP7 EXPRESSION IN NEURONAL CELLS FOR THE TREATMENT OF NEURODEGENERATIVE DISORDERS” (THE JOHNS HOPKINS UNIVERSITY, priority 2020, published 2023)
Where two headings read alike, the source gives them in different places.

How the values were obtained:
XPO1 [1] = molecular target: T1, XPO1 (Homo sapiens, UniProt O14980); experiment: Nuclear/cytoplasmic fractionation and western blot of iPSNs following Leptomycin B treatment; format: cell-based; settings: iPSNs (FIGS. 12A-12C)
Target sequence in this assay (O14980 whole entry): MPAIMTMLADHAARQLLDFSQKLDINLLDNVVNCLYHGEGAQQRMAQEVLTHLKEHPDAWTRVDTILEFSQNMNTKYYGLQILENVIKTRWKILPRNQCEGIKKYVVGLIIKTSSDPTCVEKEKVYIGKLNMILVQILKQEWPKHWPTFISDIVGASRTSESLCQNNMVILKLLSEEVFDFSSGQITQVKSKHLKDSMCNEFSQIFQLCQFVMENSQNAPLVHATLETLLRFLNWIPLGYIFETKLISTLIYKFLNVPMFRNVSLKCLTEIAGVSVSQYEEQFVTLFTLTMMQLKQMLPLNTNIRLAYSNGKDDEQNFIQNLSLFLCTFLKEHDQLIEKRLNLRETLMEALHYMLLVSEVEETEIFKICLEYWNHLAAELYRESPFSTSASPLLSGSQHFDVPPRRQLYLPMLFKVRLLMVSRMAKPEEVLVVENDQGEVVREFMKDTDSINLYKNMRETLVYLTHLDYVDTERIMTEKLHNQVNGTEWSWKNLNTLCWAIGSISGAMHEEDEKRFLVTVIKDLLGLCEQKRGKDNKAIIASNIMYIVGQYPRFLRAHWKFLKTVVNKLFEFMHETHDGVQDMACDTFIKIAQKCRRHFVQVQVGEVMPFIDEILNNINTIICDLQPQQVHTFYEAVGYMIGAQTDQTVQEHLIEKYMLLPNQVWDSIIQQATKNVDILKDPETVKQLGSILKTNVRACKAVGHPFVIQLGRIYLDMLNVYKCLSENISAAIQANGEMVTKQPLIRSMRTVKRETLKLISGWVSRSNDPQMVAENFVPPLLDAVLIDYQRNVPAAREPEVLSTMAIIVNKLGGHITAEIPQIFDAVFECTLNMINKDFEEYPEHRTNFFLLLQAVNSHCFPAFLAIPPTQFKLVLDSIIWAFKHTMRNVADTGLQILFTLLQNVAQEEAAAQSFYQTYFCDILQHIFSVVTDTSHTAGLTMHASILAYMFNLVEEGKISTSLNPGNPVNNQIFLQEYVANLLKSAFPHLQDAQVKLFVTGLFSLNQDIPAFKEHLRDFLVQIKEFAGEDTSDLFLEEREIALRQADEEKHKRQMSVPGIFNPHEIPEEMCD
Method: Leptomycin B and ASO Treatment of iPSC Derived Neurons Leptomycin B: On day 18 of differentiation, 10 nM Leptomycin B (LMB, Cayman Chemicals) was added to the culture media and iPSNs were returned to the incubator for ˜18 hours before downstream analyses were conducted. Ethanol was used as vehicle control. iPSNs were rinsed in 1×PBS and nuclear/cytoplasmic fractionation was performed with the NE-PER Nuclear and Cytoplasmic Extraction Kit (Thermo Fisher Scientific) according to manufacturer protocol. Following the addition of C2 buffer, 25 μL of sample was added to 25 μL 2× Laemmli buffer (BioRad) and set aside as protein input. An additional 25 μL was set aside on ice as RNA input. From each nuclear and cytoplasmic fraction obtained, 25 μL sample was added to 25 μL 2× Laemmli buffer for protein analysis. An additional 25 μL was added to 500 μL RLT buffer (QIAGEN) for RNA analysis. The remainder of each fraction was stored at −80° C. At the completion of the fractionation, 500 μL RLT buffer was added to the RNA input sample. RNA isolation, cDNA synthesis, and qRT-PCR were performed as described below. Western blot analysis was conducted as described below. Equal volume of each sample (10 μL) was loaded in acrylamide gels. […] The supernatant was transferred to a new Eppendorf tube and protein concentrations were determined using the BCA protein estimation assay kit (Thermo Fisher Scientific). […]

XPO1 [2] = molecular target: T1, XPO1; settings: non-neuronal cell lines (ref 24); cited from earlier work
Target sequence in this assay (O14980 whole entry, species assumed): as the sequence (O14980 whole entry) above

XPO1 [3] = molecular target: T1, XPO1; experiment: SIM of nuclei isolated from wildtype iPSNs following Leptomycin B treatment; format: cell-based; settings: 10 nM, ~18 hours
Target sequence in this assay (O14980 whole entry): as above
Method: Leptomycin B and ASO Treatment of iPSC Derived Neurons Leptomycin B: On day 18 of differentiation, 10 nM Leptomycin B (LMB, Cayman Chemicals) was added to the culture media and iPSNs were returned to the incubator for ˜18 hours before downstream analyses were conducted. Ethanol was used as vehicle control. Nuclei were isolated from iPSNs and postmortem human brain and spinal cord tissue using the Nuclei Pure Prep Nuclei Isolation Kit (Sigma Aldrich) following manufacturer protocol as previously described (13). Briefly, iPSN lysates were prepared by rinsing iPSNs with 1×PBS, adding mL supplied lysis buffer supplemented with DTT and Triton X-100 directly to each well, and harvesting iPSNs with a cell scraper. […] All lysates were transferred to a 50 mL conical tube and vortexed. Sucrose gradients were assembled following manufacturer protocol. A 1.85 M sucrose gradient was used to enrich for neuronal nuclei. Samples were centrifuged at 15,600 rpm and 4° C. using a Swi32T swinging bucket rotor and Beckman ultracentrifuge (Beckman Coulter) for 45 minutes. The supernatant was discarded, and the remaining nuclei pellet was resuspended in 1 mL of supplied nuclei storage buffer to wash the nuclei of any remaining sucrose. Resuspended nuclei were centrifuged at 2500 rpm and 4° C. for 5 minutes. The supernatant was once again discarded, and the resulting nuclei pellet was vortexed in 1 mL of supplied nuclei storage buffer to resuspend for downstream imaging analysis. […] Nuclei staining and super resolution imaging was performed as previously described (6). Following nuclei isolation, 10-50 μL of final nuclei/storage buffer suspension was centrifuged onto collagen coated (1 mg/mL; Advanced Biomatrix) slides with a CytoSpin 4 centrifuge (Thermo Fisher Scientific). Nuclei were immediately fixed with 4% PFA for 5 minutes, washed with 1×PBS 3×10 minutes and permeabilized with 1×PBST containing 0.1% Triton X-100 for 15 minutes. Nuclei were then blocked with 10% normal goat serum diluted in 1×PBS for 1 hour at room temperature and incubated in primary antibody diluted in block (10% normal goat serum in 1×PBS) overnight at 4° C. […] After 16-18 hours, nuclei were washed with 1×PBS 3×10 minutes, incubated in secondary antibody diluted in block (10% normal goat serum in 1×PBS) for 1 hour at room temperature (See Table B for antibody information). Nuclei were washed with 1×PBS 3×10 minutes and cover slipped using Prolong Gold Antifade Reagent (Invitrogen) and 18 mm×18 mm 1.5 high tolerance coverslips (MatTek). NeuN or GFP positive nuclei (see Description of the Figures) were identified via microscope eye pieces. A single z section ˜110 nm thick was acquired by widefield imaging to confirm NeuN or GFP positivity. The immunostained Nup or ESCRT-III protein was subsequently imaged by super resolution structured illumination microscopy (SIM) using a Zeiss ELYRA 51. For each image, 5 grid rotations and optimal z sectioning parameters were employed. Following image acquisition, SIM images were reconstructed using default SIM processing parameters with Zeiss Zen Black 2.3 SP1 software. Automated nucleoporin spot and volume analysis was conducted as previously described (6, 26) using Imaris version 9.2.0 (Bitplane) and the 3D suite plugin in FIJI version 1.52p. Nucleoporin spots were counted using automated spot detection. […] The total number of nucleoporin spots was determined using a 3D-rendering of segmented SIM images comprising the entire depth of each nucleus.

XPO1 [4] = molecular target: T1, XPO1; experiment: Nuclear/cytoplasmic fractionation and qRT-PCR of C9orf72 iPSNs following Leptomycin B treatment; format: cell-based
Target sequence in this assay (O14980 whole entry): as above
Method: Ethanol was used as vehicle control. iPSNs were rinsed in 1×PBS and nuclear/cytoplasmic fractionation was performed with the NE-PER Nuclear and Cytoplasmic Extraction Kit (Thermo Fisher Scientific) according to manufacturer protocol. Following the addition of C2 buffer, 25 μL of sample was added to 25 μL 2× Laemmli buffer (BioRad) and set aside as protein input. An additional 25 μL was set aside on ice as RNA input. From each nuclear and cytoplasmic fraction obtained, 25 μL sample was added to 25 μL 2× Laemmli buffer for protein analysis. An additional 25 μL was added to 500 μL RLT buffer (QIAGEN) for RNA analysis. The remainder of each fraction was stored at −80° C. At the completion of the fractionation, 500 μL RLT buffer was added to the RNA input sample. RNA isolation, cDNA synthesis, and qRT-PCR were performed as described below. […] RNA from immunoprecipitated complexes or nuclear and cytoplasmic cellular fractions was isolated with a RNeasy kit (QIAGEN) according to manufacturer protocol. RNA concentrations were determined with a NanoDrop 1000 spectrophotometer (Thermo Fisher Scientific). […]

iPSNs = experiment: Glutamate toxicity, propidium iodide (PI) incorporation; format: cell-based, human
Method: On day 12 of differentiation, iPSNs were plated in 24 well optical bottom plates (Cellvis) at a density of 250,000 neurons per well. Neurons were rinsed with 1×PBS and fed with fresh stage 3 media daily remove dead cells and debris until day 25 of differentiation. On day 25 of differentiation, ASO treatment was initiated as described above. Every 3 days, iPSNs were rinsed 3× with 1×PBS and media and ASO were replaced. On day 40 of differentiation, iPSNs were washed with 1×PBS to remove any remaining debris and dead cells. Media was replaced with ACSF (Tocris) containing 0 or 10 μM glutamate (Sigma Aldrich). iPSNs were incubated at 37° C. with 5% CO2 for 4 hours. After 3.5 hours, one drop of NucBlue Live ReadyProbes (Thermo Fisher Scientific) and […] (Thermo Fisher Scientific) and returned to the incubator for 30 mins. iPSNs were imaged in an environmentally controlled chamber with a Zeiss LSM 800 confocal microscope. […] PI and DAPI spots were counted using FIJI.
On day 12 of differentiation, iPSNs were plated in 24 well optical bottom plates (Cellvis) at a density of 250,000 neurons per well. […] After 3.5 hours, one drop of NucBlue Live ReadyProbes (Thermo Fisher Scientific) and 1 μM propidium iodide (Thermo Fisher Scientific) and returned to the incubator for 30 minutes. iPSNs were imaged in an environmentally controlled chamber with a Zeiss LSM 800 confocal microscope. […]

[5] = test system: POM121, Nup133, Nup50, FG Nups; experiment: SIM imaging of nucleoporins in nuclei isolated from CHMP7 ASO treated iPSNs; format: cell-based, human; settings: 5 μM, 2-week exposure
Method: C9orf72 repeat ASO: Sense strand targeting G4C2 ASO (619251) (13) was generously provided by Ionis Pharmaceuticals. On day 20 of differentiation, 5 μM sense targeting ASO was added to the culture media. Media was exchanged and ASO replaced on day 22 of differentiation and downstream analyses were performed on day 25 of differentiation. CHMP7 ASO: Non-targeting scrambled control (676630): […] (SEQ ID NO: 2), CHMP7 ASO 1 (1508916): […] (SEQ ID NO: 3), CHMP7 ASO 2 (1508917): […] (SEQ ID NO: 4), and CHMP7 ASO 3 (1508918): […] (SEQ ID NO:14) were generously provided by Ionis Pharmaceuticals. On day 25 of differentiation, ASOs were added to the culture media at concentrations of 1, 5, or 10 μM as indicated in Description of the Figures. Media was exchanged and ASO replaced every 3 days until day 40 of differentiation.
Nuclei were isolated from iPSNs and postmortem human brain and spinal cord tissue using the Nuclei Pure Prep Nuclei Isolation Kit (Sigma Aldrich) following manufacturer protocol as previously described (13). Briefly, iPSN lysates were prepared by rinsing iPSNs with 1×PBS, adding […] supplied lysis buffer supplemented with DTT and Triton X-100 directly to each well, and harvesting iPSNs with a cell scraper. Postmortem brain and spinal cord lysates were prepared by homogenizing 150 mg fresh frozen tissue directly in supplied lysis buffer with a dounce homogenizer. All lysates were transferred to a 50 mL conical tube and vortexed. Sucrose gradients were assembled following manufacturer protocol. A 1.85 M sucrose gradient was used to enrich for neuronal nuclei. Samples were centrifuged at 15,600 rpm and 4° C. using a Swi32T swinging bucket rotor and Beckman ultracentrifuge (Beckman Coulter) for 45 minutes. The supernatant was discarded, and the remaining nuclei pellet was resuspended in 1 mL of supplied nuclei storage buffer to wash the nuclei of any remaining sucrose. Resuspended nuclei were centrifuged at 2500 rpm and 4° C. for 5 minutes. The supernatant was once again discarded, and the resulting nuclei pellet was vortexed in 1 mL of supplied nuclei storage buffer to resuspend for downstream imaging analysis. For western blots, washed nuclei were lysed in RIPA buffer as described below.
Nuclei staining and super resolution imaging was performed as previously described (6). Following nuclei isolation, 10-50 μL of final nuclei/storage buffer suspension was centrifuged onto collagen coated (1 mg/mL; Advanced Biomatrix) slides with a CytoSpin 4 centrifuge (Thermo Fisher Scientific). Nuclei were immediately fixed with 4% PFA for 5 minutes, washed with 1×PBS 3×10 minutes and permeabilized with 1×PBST containing 0.1% Triton X-100 for 15 minutes. Nuclei were then blocked with 10% normal goat serum diluted in 1×PBS for 1 hour at room temperature and incubated in primary antibody diluted in block (10% normal goat serum in 1×PBS) overnight at 4° C. (See Table B for antibody information). After 16-18 hours, nuclei were washed with 1×PBS 3×10 minutes, incubated in secondary antibody diluted in block (10% normal goat serum in 1×PBS) for 1 hour at room temperature (See Table B for antibody information). Nuclei were washed with 1×PBS 3×10 minutes and cover slipped using Prolong Gold Antifade Reagent (Invitrogen) and 18 mm×18 mm 1.5 high tolerance coverslips (MatTek). NeuN or GFP positive nuclei (see Description of the Figures) were identified via microscope eye pieces. A single z section ˜110 nm thick was acquired by widefield imaging to confirm NeuN or GFP positivity. The immunostained Nup or ESCRT-III protein was subsequently imaged by super resolution structured illumination microscopy (SIM) using a Zeiss ELYRA 51. For each image, 5 grid rotations and optimal z sectioning parameters were employed. Following image acquisition, SIM images were reconstructed using default SIM processing parameters with Zeiss Zen Black 2.3 SP1 software. […]

TDP-43 = experiment: Immunostaining and confocal imaging for TDP-43 in iPSNs; format: cell-based, human; settings: sALS iPSNs; day 46; 3-week treatment
Method: (§1) Non-targeting scrambled control (676630): […] (SEQ ID NO:2), CHMP7 ASO 1 (1508916): […] (SEQ ID NO:3), CHMP7 ASO 2 (1508917): […] (SEQ ID NO:4), and CHMP7 ASO 3 (1508918): […] (SEQ ID NO:14) were generously provided by Ionis Pharmaceuticals. On day 25 of differentiation, ASOs were added to the culture media at concentrations of […] as indicated in Description of the Figures. Media was exchanged and ASO replaced every 3 days until iPSNs were subjected to downstream analyses on day 40 of differentiation for western blot, SIM, and glutamate excitotoxicity and day 46 of differentiation for stathmin-2 qRT-PCR, Ran GTPase localization, and TDP-43 localization.
On day 12 of differentiation, iPSNs were plated in 24 well optical bottom plates (Cellvis). […] Nuclear intensity and N/C ratios were calculated with FIJI as previously described (80). […]

stathmin-2 mRNA = experiment: qRT-PCR for full length and truncated stathmin-2 mRNA; format: cell-based, human; settings: C9orf72 and sALS iPSNs; day 46; 3 week exposure; GAPDH normalization
Method: as §1
RNA from iPSNs was isolated with a RNeasy kit (QIAGEN) according to manufacturer protocol. RNA concentrations were determined with a NanoDrop 1000 spectrophotometer (Thermo Fisher Scientific). For CHMP7 ASO experiments, RNA was isolated on day 46 of differentiation following 3 weeks exposure to 5 μM CHMP7 ASO2 or scrambled control ASO. For CHMP7 overexpression experiments, RNA was isolated on day 32 of differentiation (2 weeks after plasmid nucleofection). […]

[6] = C9orf72 and sALS iPSNs, day 40, compared to scrambled control ASO
[7] = C9orf72 iPSNs, compared to scrambled control ASO

## CCC(=C/[C@H](C)C/C=C/C(C)=C/[C@@H](C)C(=O)[C@@H](C)[C@H](O)[C@@H](C)C/C(C)=C/C(=O)O)/C=C/[C@@H]1OC(=O)C=C[C@@H]1C [LMB, Leptomycin B]
XPO1 [1]
  nuclear levels of DDX3X: increases
  nuclear levels of RanBP1: increases
XPO1 [2]
  nuclear levels of DDX3X: increases
  nuclear levels of RanBP1: increases
XPO1 [3]
  CHMP7 in the nucleus: significant increase
  Nup50 immunoreactivity in nuclei: reduction
  Nup133 immunoreactivity in nuclei: reduction
  POM121 immunoreactivity in nuclei: reduction
  VPS4 immunoreactivity in nuclei: increase
XPO1 [4]; C9orf72 iPSNs (FIG. 12D)
  presence of G4C2 repeat RNA in the nuclear fraction: strongly increases
XPO1 [4]; C9orf72 iPSNs (FIG. 12E)
  presence of G2C4 repeat RNA in the nuclear fraction: strongly increases

## TGTTACCCTCAGATACCGCC (listed as DNA, chemistry not given here) [CHMP7 ASO 2, CHMP7 targeting ASO provided by Ionis Pharmaceuticals; targets human CHMP7 pre-mRNA, RNase H based degradation]
iPSNs; C9orf72 and sALS iPSNs, two week treatment (FIG. 20I)
  sensitivity to glutamate induced excitotoxicity as measured by propidium iodide (PI) incorporation: significantly decreased
iPSNs; C9orf72 iPSNs, 2-week exposure to 5 μM ASO, 10 μM glutamate 4 hours (FIG. 4H)
  sensitivity to glutamate induced excitotoxicity as measured by propidium iodide (PI) incorporation: mitigates
[5]; [6]
  Nup50 expression in iPSN nuclei and NPCs: significantly restored
  Nup133 expression in iPSN nuclei and NPCs: significantly restored
  POM121 expression in iPSN nuclei and NPCs: significantly restored
[5]; [7]
  Nup50 expression in iPSN nuclei and NPCs: significantly restored
  Nup133 expression in iPSN nuclei and NPCs: significantly restored
  POM121 expression in iPSN nuclei and NPCs: significantly restored
TDP-43
  nuclear TDP-43 localization: restored
stathmin-2 mRNA
  full length stathmin-2 mRNA levels: restored to levels observed in control iPSNs
  truncated stathmin-2 mRNA levels: restored to levels observed in control iPSNs
